Values quoted from earlier work, collected in patent publication US5866539A, “Method for the control of antibiotic-resistant gram positive bacteria and treatment of infection” (AMBI Inc., priority 1996, dated 1999).
Where no end group is shown, it is not given here.

Test system: staphylococci and enterococci
Conditions: compared to currently used therapeutic agents

Row | Substance | activity towards staphylococci and enterococci
1 | Actagardine | only moderate activity
2 | mersacidin (CTFTLPGGGGVCTLTSECIC; also: lantibiotic thioether rings, places not given here; UniProt P43683 49-68, looked up) [more recent lanthionine-containing antimicrobial peptide evaluated in the literature] | only moderate activity
